The values that follow come from patent US11746100B2 (GLOBAL BLOOD THERAPEUTICS, INC., priority 2020, dated 2023).

SMILES strings stand for the structures.

The experiment concerns the target T1, human ferroportin (Homo sapiens, UniProt Q9NP59).
T1 construct: luciferase reporter (read with the Nano-Glo Luciferase Assay System); expressed in transfected cells; host or cells: CHO cells, stably transfected, expression induced with doxycycline
T1 sequence (Q9NP59 1-571): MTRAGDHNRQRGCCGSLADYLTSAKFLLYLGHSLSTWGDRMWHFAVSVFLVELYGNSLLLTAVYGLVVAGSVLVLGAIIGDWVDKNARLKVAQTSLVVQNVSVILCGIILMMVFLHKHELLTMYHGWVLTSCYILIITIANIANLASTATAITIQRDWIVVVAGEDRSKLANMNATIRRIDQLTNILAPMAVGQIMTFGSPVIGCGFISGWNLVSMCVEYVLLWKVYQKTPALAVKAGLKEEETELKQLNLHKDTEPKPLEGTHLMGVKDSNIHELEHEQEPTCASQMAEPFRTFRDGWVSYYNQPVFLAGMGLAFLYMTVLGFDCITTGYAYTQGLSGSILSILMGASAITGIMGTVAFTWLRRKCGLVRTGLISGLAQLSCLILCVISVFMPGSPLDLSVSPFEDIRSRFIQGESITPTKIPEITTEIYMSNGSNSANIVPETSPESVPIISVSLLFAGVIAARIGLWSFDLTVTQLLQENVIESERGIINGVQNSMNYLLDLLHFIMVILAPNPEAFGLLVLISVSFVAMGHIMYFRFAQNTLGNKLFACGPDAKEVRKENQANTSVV
Nature of the experiment: Biological in-vitro ferroportin internalization assay (luciferase reporter). In kind it is cell-based. As to conditions: average pEC50; stably-transfected CHO cell line expressing human ferroportin tagged to a luciferase reporter; 6 h incubation with test compound. In short, it runs like this:
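Stably transfected CHO cells expressing luciferase-tagged human ferroportin, plated 24 h with ferric ammonium citrate and induced with doxycycline for 24 h. Compounds incubated 6 h, then luciferase activity measured by Nano-Glo; average pEC50 reported.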
In general terms: Reporter assays use an easily measured gene product as a stand-in for the process of interest.
What is called pEC50 is −log10 of the EC50, conventionally taken in molar units. Lower therefore signals a high EC50. For `CN(CC(=O)NC(C)(C)C)c1nc(-c2cc(OCCN3CC[C@@H](F)C3)ccn2)nc2c1CCC2` [Compound 473, N-tert-butyl-2-{[2-(4-{2-[(3R)-3-fluoropyrrolidin-1-yl]ethoxy}pyridin-2-yl)-5H,6H,7H-cyclopenta[d]pyrimidin-4-yl](methyl)amino}acetamide], the negative logarithm of the EC50 (pEC50) was 8.3.
Then `CN(CC(=O)NC(C)(C)C)c1nc(-c2cc(OCCN3CC[C@H](F)C3)ccn2)nc2c1CCC2` [Compound 474, N-tert-butyl-2-{[2-(4-{2-[(3S)-3-fluoropyrrolidin-1-yl]ethoxy}pyridin-2-yl)-5H,6H,7H-cyclopenta[d]pyrimidin-4-yl](methyl)amino}acetamide], with 8.3; and `CN(C)CCCc1ccnc(-c2nc3c(c(N(C)CC(=O)NC(C)(C)C)n2)CCC3)c1` [Compound 475, N-tert-butyl-2-[(2-{4-[3-(dimethylamino)propyl]pyridin-2-yl}-5H,6H,7H-cyclopenta[d]pyrimidin-4-yl)(methyl)amino]acetamide], with 7.6; and `COc1ccnc(-c2nc3c(c(N(C)CC(=O)NCCN(C)C)n2)CCC3)c1` [Compound 476, N-[2-(dimethylamino)ethyl]-2-{[2-(4-methoxypyridin-2-yl)-5H,6H,7H-cyclopenta[d]pyrimidin-4-yl](methyl)amino}acetamide], with 6.7.
Then `COc1ccnc(-c2nc3c(c(N(C)CC(=O)N4CCOCC4)n2)CCC3)c1` [Compound 477, 2-{[2-(4-methoxypyridin-2-yl)-5H,6H,7H-cyclopenta[d]pyrimidin-4-yl](methyl)amino}-1-(morpholin-4-yl)ethan-1-one], with 6.9; and `CN(C)CCOc1ccnc(-c2nc3c(c(N(C)CC(=O)NCC(F)(F)F)n2)CCC3)c1` [Compound 478, 2-[(2-{4-[2-(dimethylamino)ethoxy]pyridin-2-yl}-5H,6H,7H-cyclopenta[d]pyrimidin-4-yl)(methyl)amino]-N-(2,2,2-trifluoroethyl)acetamide], with 7.6.
As for `CN(CC(=O)NCC(F)(F)F)c1nc(-c2cc(OCC(C)(C)O)ccn2)nc2c1CCC2` [Compound 479, 2-({2-[4-(2-hydroxy-2-methylpropoxy)pyridin-2-yl]-5H,6H,7H-cyclopenta[d]pyrimidin-4-yl}(methyl)amino)-N-(2,2,2-trifluoroethyl)acetamide], the figure is 7.9.
On to `CNCCCc1ccnc(-c2nc3c(c(N(C)CC(=O)NC(C)(C)C)n2)CCC3)c1` [Compound 480, N-tert-butyl-2-[methyl(2-{4-[3-(methylamino)propyl]pyridin-2-yl}-5H,6H,7H-cyclopenta[d]pyrimidin-4-yl)amino]acetamide], for which the pEC50 is 7.3.
Then `CN(CC(=O)NC(C)(C)C)c1nc(-c2cc(CCC(C)(C)O)ccn2)nc2c1CCC2` [Compound 481, N-tert-butyl-2-({2-[4-(3-hydroxy-3-methylbutyl)pyridin-2-yl]-5H,6H,7H-cyclopenta[d]pyrimidin-4-yl}(methyl)amino)acetamide], with 7.7; and `CN(CC(=O)NC(C)(C)C)c1nc(-c2cc(O)ccn2)nc2c1CCC2` [Compound 482, N-tert-butyl-2-{[2-(4-hydroxypyridin-2-yl)-5H,6H,7H-cyclopenta[d]pyrimidin-4-yl](methyl)amino}acetamide], with 6.1.
Then `CN(CC(=O)NC(C)(C)C)c1nc(-c2cc(OCCN)ccn2)nc2c1CCC2` [Compound 483, 2-({2-[4-(2-aminoethoxy)pyridin-2-yl]-5H,6H,7H-cyclopenta[d]pyrimidin-4-yl}(methyl)amino)-N-tert-butylacetamide], with 7.2; and `CN(C)CCOc1ccnc(-c2nc3c(c(NCC(=O)NC(C)(C)C)n2)CCC3)c1` [Compound 484, N-tert-butyl-2-[(2-{4-[2-(dimethylamino)ethoxy]pyridin-2-yl}-5H,6H,7H-cyclopenta[d]pyrimidin-4-yl)amino]acetamide], with 7; and `CNCCOc1ccnc(-c2nc3c(c(NCC(=O)NC(C)(C)C)n2)CCC3)c1` [Compound 485, N-tert-butyl-2-[(2-{4-[2-(methylamino)ethoxy]pyridin-2-yl}-5H,6H,7H-cyclopenta[d]pyrimidin-4-yl)amino]acetamide], with 7.1.
`C[C@H](CN(C)C)Oc1ccnc(-c2nc3c(c(N(C)CC(=O)NC4(C(F)(F)F)CC4)n2)CCC3)c1` [Compound 486, 2-{[2-(4-{[(2R)-1-(dimethylamino)propan-2-yl]oxy}pyridin-2-yl)-5H,6H,7H-cyclopenta[d]pyrimidin-4-yl](methyl)amino}-N-[1-(trifluoromethyl)cyclopropyl]acetamide] showed a pEC50 of 7.4.
As for `CN1CC[C@@H](Oc2ccnc(-c3nc4c(c(N(C)CC(=O)NC5(C(F)(F)F)CC5)n3)CCC4)c2)C1` [Compound 487, 2-{methyl[2-(4-{[(3R)-1-methylpyrrolidin-3-yl]oxy}pyridin-2-yl)-5H,6H,7H-cyclopenta[d]pyrimidin-4-yl]amino}-N-[1-(trifluoromethyl)cyclopropyl]acetamide], the figure is 7.5; as for `C[C@@H]1C[C@@H](Oc2ccnc(-c3nc4c(c(N(C)CC(=O)NC(C)(C)C)n3)CCC4)c2)CN1C` [Compound 488, N-tert-butyl-2-{[2-(4-{[(3R,5R)-1,5-dimethylpyrrolidin-3-yl]oxy}pyridin-2-yl)-5H,6H,7H-cyclopenta[d]pyrimidin-4-yl](methyl)amino}acetamide], 7.8.
As for `CN1CCC[C@@H](Oc2ccnc(-c3nc4c(c(N(C)CC(=O)NC(C)(C)C)n3)CCC4)c2)C1` [Compound 489, N-tert-butyl-2-{methyl[2-(4-{[(3R)-1-methylpiperidin-3-yl]oxy}pyridin-2-yl)-5H,6H,7H-cyclopenta[d]pyrimidin-4-yl]amino}acetamide], the figure is 8.2; as for `CN1CCC[C@H](Oc2ccnc(-c3nc4c(c(N(C)CC(=O)NC(C)(C)C)n3)CCC4)c2)C1` [Compound 490, N-tert-butyl-2-{methyl[2-(4-{[(3S)-1-methylpiperidin-3-yl]oxy}pyridin-2-yl)-5H,6H,7H-cyclopenta[d]pyrimidin-4-yl]amino}acetamide], 7.9; as for `CN(CC(=O)NC(C)(C)C)c1nc(-c2cc(O[C@@H]3CCN(CC(F)F)C3)ccn2)nc2c1CCC2` [Compound 491, N-tert-butyl-2-{[2-(4-{[(3R)-1-(2,2-difluoroethyl)pyrrolidin-3-yl]oxy}pyridin-2-yl)-5H,6H,7H-cyclopenta[d]pyrimidin-4-yl](methyl)amino}acetamide], 8.2.
Then `CN(CC(=O)NC(C)(C)C)c1nc(-c2cc(OCC(C)(C)O)ccn2)nc2c1C(=O)CC2` [Compound 492, N-tert-butyl-2-({2-[4-(2-hydroxy-2-methylpropoxy)pyridin-2-yl]-5-oxo-5H,6H,7H-cyclopenta[d]pyrimidin-4-yl}(methyl)amino)acetamide], with 6.6; and `CN(C)CCOc1ccnc(-c2nc3c(c(N(C)CC(=O)NC(C)(C)C)n2)C(O)CC3)c1` (centres unmarked) [Compound 493, N-tert-butyl-2-[(2-{4-[2-(dimethylamino)ethoxy]pyridin-2-yl}-5-hydroxy-5H,6H,7H-cyclopenta[d]pyrimidin-4-yl)(methyl)amino]acetamide], with 6.9.
Regarding `CN(C)CCOc1ccnc(-c2nc3c(c(N(C)CC(=O)NC(C)(C)C)n2)CCC3O)c1` (centres unmarked) [Compound 494, N-tert-butyl-2-[(2-{4-[2-(dimethylamino)ethoxy]pyridin-2-yl}-7-hydroxy-5H,6H,7H-cyclopenta[d]pyrimidin-4-yl)(methyl)amino]acetamide], the pEC50 stood at 6.3.
Then `CN(C)CCOc1ccnc(-c2cc(N(C)CC(=O)NC(C)(C)C)c3c(n2)CCC3)c1` [Compound 495, N-tert-butyl-2-[(2-{4-[2-(dimethylamino)ethoxy]pyridin-2-yl}-5H,6H,7H-cyclopenta[b]pyridin-4-yl)(methyl)amino]acetamide], with 7.4.
With `CCN1CC[C@@H](Oc2ccnc(-c3nc4c(c(N(C)CC(=O)NC(C)(C)C)n3)CCC4)c2)C1` [Compound 496, N-tert-butyl-2-{[2-(4-{[(3R)-1-ethylpyrrolidin-3-yl]oxy}pyridin-2-yl)-5H,6H,7H-cyclopenta[d]pyrimidin-4-yl](methyl)amino}acetamide], the pEC50 is given as 8.0.
Then `CN(CC(=O)NC(C)(C)C)c1nc(-c2cc(O[C@@H]3CCN(CCF)C3)ccn2)nc2c1CCC2` [Compound 497, N-tert-butyl-2-{[2-(4-{[(3R)-1-(2-fluoroethyl)pyrrolidin-3-yl]oxy}pyridin-2-yl)-5H,6H,7H-cyclopenta[d]pyrimidin-4-yl](methyl)amino}acetamide], with 8.2; and `CSc1ccnc(-c2nc3c(c(N(C)CC(=O)NC(C)(C)C)n2)CCC3)c1` [Compound 498, N-tert-butyl-2-[methyl({2-[4-(methylsulfanyl)pyridin-2-yl]-5H,6H,7H-cyclopenta[d]pyrimidin-4-yl})amino]acetamide], with 7.5.
